Patent US9316588B2, “Bioassay method for detecting physiologically active substance” (OTSUKA PHARMACEUTICAL CO., LTD., priority 2010, dated 2016)

Legend:
Type in all cases: cell-based
[1] = molecular target: T1, human V2R (Homo sapiens, UniProt P30518); experiment: Detection of AVP and V2R antagonist by desensitization (calcium-containing medium, addition of AVP, then forskolin)
T1 construct: The human vasopressin receptor isoform 2 (V2R) cDNA cloned in pUC18 was recloned into a pEF2 vector to prepare pEFhV2R; expressed in transfected cells; host or cells: CHO cells, transient transfection with FuGENE6, then frozen
T1 sequence (P30518 1-309 isoform P30518-2): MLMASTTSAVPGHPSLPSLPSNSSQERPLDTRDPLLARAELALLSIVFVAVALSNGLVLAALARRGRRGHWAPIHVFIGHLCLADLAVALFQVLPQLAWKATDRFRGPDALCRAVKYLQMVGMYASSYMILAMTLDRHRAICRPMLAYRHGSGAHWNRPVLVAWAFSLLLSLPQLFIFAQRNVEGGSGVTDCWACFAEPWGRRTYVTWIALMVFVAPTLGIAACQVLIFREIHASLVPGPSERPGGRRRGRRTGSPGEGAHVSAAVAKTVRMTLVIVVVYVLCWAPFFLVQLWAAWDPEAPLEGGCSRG
Description: This method utilizes the desensitization of the cAMP dependent calcium channel to detect the activity of a V2R antagonist. […] In this state, the addition of forskolin that activates adenylate cyclase forms cAMP, which in turn activates the cAMP dependent calcium channel (e.g., CNG calcium). Thus, the calcium sensitive protein emits luminescence. […] In this state, the subsequent addition of […] desensitizes the once activated cAMP dependent calcium channel, which is no longer activated by the addition of forskolin.
1 ml (3×10^6 cells/ml) of the frozen cells prepared in 1 was thawed in a warm bath and suspended in 10 mL of a washing buffer. The suspension was centrifuged at 1000 rpm for 5 minutes. 12 mL of a culture buffer was added to the obtained precipitate, and 6 μL of 4 mM ViviRen was added thereto. The mixture was seeded at 50 μL/well into a 96-well plate. […] Subsequently, 10^−4 M forskolin was further added thereto at 50 μL/well, and the amount of luminescence was measured using a luminometer (FIG. 16).

[2] = molecular target: T2, human GLP-1 receptor (Homo sapiens, UniProt P43220, L260F); experiment: Aequorin luminescence in frozen CHO cell lines expressing human GLP-1 receptor, modified CNG channel and modified aequorin; conditions: even at a concentration 1 million times higher compared with the active forms of GLP-1; FIG. 24
T2 construct: The human GLP-1 receptor (GLP-1R) cDNA cloned in pUC18 was recloned into a pCIneo vector to prepare pCIneoGLP-1R; expressed in transfected cells; host or cells: CHO cell lines, transient transfection with FuGENE6, then frozen
T2 sequence (P43220 24-463 L260F): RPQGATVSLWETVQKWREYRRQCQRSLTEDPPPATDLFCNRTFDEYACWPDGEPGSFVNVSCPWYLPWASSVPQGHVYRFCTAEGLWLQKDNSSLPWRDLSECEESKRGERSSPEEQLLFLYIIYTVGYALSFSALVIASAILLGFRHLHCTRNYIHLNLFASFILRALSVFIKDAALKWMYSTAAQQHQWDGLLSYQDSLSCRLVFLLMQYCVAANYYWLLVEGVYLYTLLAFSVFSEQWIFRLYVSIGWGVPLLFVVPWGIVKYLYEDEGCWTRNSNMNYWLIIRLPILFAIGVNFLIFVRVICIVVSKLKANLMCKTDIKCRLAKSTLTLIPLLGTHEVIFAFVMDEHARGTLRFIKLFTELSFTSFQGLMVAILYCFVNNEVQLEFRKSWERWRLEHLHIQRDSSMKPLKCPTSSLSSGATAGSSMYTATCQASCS
Protocol: 1 ml (3×10^6 cells/ml) of the frozen cells prepared in 1 was thawed in a warm bath and suspended in 10 mL of a washing buffer.
(§1) 1 ml (3×10^6 cells/ml) of the frozen cells prepared in 1 was thawed in a warm bath and suspended in 10 mL of a washing buffer. The suspension was centrifuged at 1000 rpm for 5 minutes. 12 mL of a culture buffer was added to the obtained precipitate, and 6 μL of 4 mM ViviRen was added thereto.

[3] = molecular target: T2, human GLP-1 receptor; experiment: GLP-1 antagonist activity in CHO cells expressing human GLP-1 receptor, GLP-1 added after culture; conditions: 3 hours culture, then 10^-11 M GLP-1; FIG. 27
Protocol: as §1, with “Next, the activity of a GLP-1 antagonist was measured. 1 ml” for “1 ml”, “added thereto. The mixture was seeded at 90 μL/well into a 96-well plate.” for “added thereto.”
Exendin-4 (9-39) was added thereto at 10 μL/well, and the cells were cultured for 3 hours. 10^−11 M GLP-1 was added thereto at 10 μL/well, and the amount of luminescence was measured using a luminometer.

| Compound | reactivity of the kit [2] | other results |
| --- | --- | --- |
| Cc1ccccc1C(=O)Nc1ccc(C(=O)N2CCCC(O)c3cc(Cl)ccc32)c(C)c1 (stereo not drawn) [OPC-41061] |  | luminescence of forskolin after antagonist and AVP ([1]; 10^-7 M AVP, then 10^-4 M forskolin, FIG. 16): the luminescence of forskolin was detected in a concentration dependent manner; inhibition of the action of added AVP (amount of luminescence) ([1]; cells cultured 3 hours with compound in calcium-containing medium, then 10^-7 M AVP, FIG. 14): inhibited the action of added AVP in a concentration dependent manner |
| GIP: incretin acting on other receptors | hardly reacted |  |
| GLP-1 (9-36 amide) | hardly reacted |  |
| GLP-2: incretin acting on other receptors | hardly reacted |  |
| exendin-4 (9-39): GLP-1 receptor antagonist |  | inhibition of the agonistic action of added GLP-1 [3]: inhibited the agonistic action of added GLP-1 in a concentration dependent manner |
